Laboratory results as given in US20060008891A1, “Cathepsin G-related peptides as modulators of formylpeptide receptors (FPR)” (The Government of USA as repersented by the Secretary, …, priority 2004, published 2006).
Values belong to the molecule of their own block, whether it stands above or below them.

Columns and labels:
PKC isozymes = test: PKC translocation in parental RBL cells; type: cell-based, rat; details: 100 nM fMLF, 10 μg/ml CaG or PMA 500 nM, 37° C. 10 min
monocytes = test: Chemotaxis assay, monocytes; type: cell-based, human; details: pre-incubation fMLF 100 nM or MMK-1 5 μM, 37° C. 30 min, washing; CaG 10 μg/ml
Procedure: Human PBMC were isolated from leukopacks obtained through the courtesy of Transfusion Medicine Department, National Institutes of Health Clinical Center (Bethesda, Md.) by Ficoll-Hypaque density gradient centrifugation. Monocytes were purified from human PBMC by Percoll gradient to yield>90% pure preparations. […] H. Ali and R. Snyderman, Duke University (Durham, N.C.) and maintained in the presence of 0.8 mg/ml geneticin (G418, Life Technologies, Rockville, Md.) in DMEM supplemented with 10% FCS. B. Chemotaxis assay Migration of phagocytes and ETFR cells was assessed using a 48-well microchemotaxis chamber (Neuroprobe, Cabin John, Md.) as previously described (Hu et al. (2001) J Leukoc Biol 70 15512). Briefly, different concentrations of stimulants were placed in the wells of the lower compartment of the chamber, and 50 μl cells (1.5×10^6 cells/ml for monocyte and neutrophil, 1×10^6 ETFR cells/ml) were added to the wells of the upper compartment. The lower and upper compartments were separated by either a 5-μm (for monocyte) or a 10-μm pore size, collagen-coated (for ETFR cells) polycarbonate filter (Osmonics, Livermore, Calif.). After incubation at 37° C. in humidified air with 5% CO2 (60 min for neutrophils, 90 min for monocytes, 4.5 h for ETFR cells), the filter was removed and stained, and the cells migrating across the filter were counted with light microscopy. The results are presented as the mean number of cells (±SD) in three high power fields (HPFs). […] After thorough washing with cold medium (RPMI 1640, 1% BSA), the cells were resuspended and assayed. To measure the effect of various signaling inhibitors, unless otherwise indicated, the cells were pre-incubated at 37° C. for 60 min with the inhibitors, and were then added to the upper wells of the chemotaxis chamber.

PKCδ = PKCδ translocation in ETFR cells; type: cell-based, rat; details: 100 nM fMLF, 10 μg/ml CaG or PMA 500 nM, 37° C. 10 min
Procedure: ETFR cells were seeded on coverslips and cultured overnight in DMEM containing 1% FCS at 37° C. After further culture in FCS-free DMEM for 3 h, cells were treated with stimulants for indicated time periods at 37° C. and were then fixed in 4% paraformaldehyde for 5 min at room temperature. […] The rabbit anti-PKCα/β, δ, and ξ, antibodies (1:1000 in DPBS) were applied separately for 1 h at room temperature. After three rinses with DPBS, the cells were stained with FITC-labeled goat anti-rabbit secondary antibody (PharMingen, 1:1000 in DPBS) for 1 h at room temperature. The coverslips were mounted with an anti-fade, water-based mounting medium with Propidium Iodide (PI) (Vector Lab, Burlingamem, Calif.) and analyzed under a laser scanning confocal fluorescence microscope (Zeiss LSM510 NLO Meta, Jena, Germany).

ERK1/2 = test: Phosphorylation of ERK1/2 in ETFR cells (Western blot); type: cell-based, rat; details: ETFR cells; fMLF at 100 nM
Procedure: ETFR cells were plated in Petri dishes and cultured in DMEM at 37° C. in humidified 5% CO2 atmosphere for 48 h. After further culture in serum-free DMEM overnight, the cells were treated with stimulants for indicated time periods. The reaction was stopped by adding 1 ml ice-cold PBS, and the cells were lysed in 1×SDS lysis buffer (62.5 mM Tris-HCl, 2% w/v SDS, 10% glycerol, 50 mM DTT, pH 6.8) and harvested into tubes for sonication. Proteins (50 μg for each sample) were resolved by SDS-PAGE and transferred onto nitrocellulose membranes (Bio-Rad, Hercules, Calif.). The membranes were blocked for 2 h at room temperature in 3% non-fat milk prepared in Tris-buffered saline-T (10 mM Tris-HCl, pH 7.5, 150 mM NaCl, 0.1% Tween 20) and probed with anti-p-ERK1/2, p-p38 MAPK, or p-Akt (1:1000) at room temperature for 1-2 h or at 4° C. overnight. The membranes were then washed and incubated with horseradish peroxidase-conjugated secondary antibodies diluted in Tris-buffered saline-T for 1 h at room temperature. The immune complexes on the membranes were visualized using ECL reagents. Total ERK1/2, p38 MAPK, and Akt were visualized by stripping the same membrane and probing with antibodies against total ERK1/2, p38 MAPK, and Akt.

parental RBL cells = test: Chemotaxis assay, parental RBL cells; type: cell-based, rat; details: parental RBL cells without FPR
Procedure: Human PBMC were isolated from leukopacks obtained through the courtesy of Transfusion Medicine Department, National Institutes of Health Clinical Center (Bethesda, Md.) by Ficoll-Hypaque density gradient centrifugation. Monocytes were purified from human PBMC by Percoll gradient to yield>90% pure preparations. […] H. Ali and R. Snyderman, Duke University (Durham, N.C.) and maintained in the presence of 0.8 mg/ml geneticin (G418, Life Technologies, Rockville, Md.) in DMEM supplemented with 10% FCS. B. Chemotaxis assay Migration of phagocytes and ETFR cells was assessed using a 48-well microchemotaxis chamber (Neuroprobe, Cabin John, Md.) as previously described (Hu et al. (2001) J Leukoc Biol 70 15512). Briefly, different concentrations of stimulants were placed in the wells of the lower compartment of the chamber, and 50 μl cells (1.5×10^6 cells/ml for monocyte and neutrophil, 1×10^6 ETFR cells/ml) were added to the wells of the upper compartment. The lower and upper compartments were separated by either a 5-μm (for monocyte) or a 10-μm pore size, collagen-coated (for ETFR cells) polycarbonate filter (Osmonics, Livermore, Calif.). After incubation at 37° C. in humidified air with 5% CO2 (60 min for neutrophils, 90 min for monocytes, 4.5 h for ETFR cells), the filter was removed and stained, and the cells migrating across the filter were counted with light microscopy. […]

PKCα/β = PKCα/β translocation in ETFR cells; type: cell-based, rat; details: 100 nM fMLF, 10 μg/ml CaG or PMA 500 nM, 37° C. 10 min
Procedure: (§1) ETFR cells were seeded on coverslips and cultured overnight in DMEM containing 1% FCS at 37° C. After further culture in FCS-free DMEM for 3 h, cells were treated with stimulants for indicated time periods at 37° C. and were then fixed in 4% paraformaldehyde for 5 min at room temperature. The cells were permeabilized with 0.2% Tween 20 for 30 min at 4° C. and the reaction was blocked with 5% goat normal serum for 15 min at room temperature. The rabbit anti-PKCα/β, δ, and ξ, antibodies (1:1000 in DPBS) were applied separately for 1 h at room temperature. After three rinses with DPBS, the cells were stained with FITC-labeled goat anti-rabbit secondary antibody (PharMingen, 1:1000 in DPBS) for 1 h at room temperature. The coverslips were mounted with an anti-fade, water-based mounting medium with Propidium Iodide (PI) (Vector Lab, Burlingamem, Calif.) and analyzed under a laser scanning confocal fluorescence microscope (Zeiss LSM510 NLO Meta, Jena, Germany). Excitation wavelengths 488 (for FITC) and 568 (for PI) nm were used to generate fluorescence emission in green and red, respectively.

PKCζ = PKCζ translocation in ETFR cells (confocal microscopy); type: cell-based, rat; details: 100 nM fMLF, 10 μg/ml CaG or PMA 500 nM, 37° C. 10 min
Procedure: as §1

[1] = target: epitope-tagged human FPR stably expressed on rat basophilic leukemia (RBL) cells (ETFR cells) (human) (UniProt P21462); test: displacement of 3 nM ^3[H]-fMLF from ETFR cells, filter binding
[2] = target: human formylpeptide receptor (FPR), native or wild type, on cells (human) (UniProt P21462); test: displacement of 3 nM ^3[H]-fMLF from human monocytes, filter binding
[3] = target: T1, epitope-tagged human FPR stably expressed on rat basophilic leukemia (RBL) cells (ETFR cells), P21462
T1 chain: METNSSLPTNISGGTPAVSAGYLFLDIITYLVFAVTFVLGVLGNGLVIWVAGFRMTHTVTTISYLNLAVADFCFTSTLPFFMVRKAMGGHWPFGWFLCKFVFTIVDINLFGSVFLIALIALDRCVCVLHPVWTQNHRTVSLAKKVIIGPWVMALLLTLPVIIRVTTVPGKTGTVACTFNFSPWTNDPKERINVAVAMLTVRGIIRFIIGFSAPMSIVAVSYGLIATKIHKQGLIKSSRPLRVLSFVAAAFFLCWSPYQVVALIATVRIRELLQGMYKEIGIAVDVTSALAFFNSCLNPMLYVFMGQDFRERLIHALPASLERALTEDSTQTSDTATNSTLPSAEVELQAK

[4] = target: T2, human formylpeptide receptor (FPR), native or wild type, on cells, P21462
T2 chain: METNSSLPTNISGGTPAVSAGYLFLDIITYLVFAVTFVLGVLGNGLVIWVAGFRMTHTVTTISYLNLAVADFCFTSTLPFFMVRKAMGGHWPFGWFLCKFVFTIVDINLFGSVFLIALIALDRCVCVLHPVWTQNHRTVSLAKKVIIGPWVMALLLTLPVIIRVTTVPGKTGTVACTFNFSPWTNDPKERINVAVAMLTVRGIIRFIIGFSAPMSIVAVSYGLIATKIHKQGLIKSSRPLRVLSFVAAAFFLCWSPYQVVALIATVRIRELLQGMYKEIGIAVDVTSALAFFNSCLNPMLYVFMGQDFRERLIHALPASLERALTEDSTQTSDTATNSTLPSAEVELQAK

[5] = target: T3, human formylpeptide receptor (FPR), native or wild type, on cells (human, UniProt P21462 1-350); test: displacement of 3 nM ^3[H]-fMLF from human monocytes by unlabeled CaG, filter binding
T3 construct: whole, on cells; Used for assays on human monocytes and neutrophils (endogenous FPR) and on HEK293 cells transfected with wild type FPR
T3 sequence (looked up): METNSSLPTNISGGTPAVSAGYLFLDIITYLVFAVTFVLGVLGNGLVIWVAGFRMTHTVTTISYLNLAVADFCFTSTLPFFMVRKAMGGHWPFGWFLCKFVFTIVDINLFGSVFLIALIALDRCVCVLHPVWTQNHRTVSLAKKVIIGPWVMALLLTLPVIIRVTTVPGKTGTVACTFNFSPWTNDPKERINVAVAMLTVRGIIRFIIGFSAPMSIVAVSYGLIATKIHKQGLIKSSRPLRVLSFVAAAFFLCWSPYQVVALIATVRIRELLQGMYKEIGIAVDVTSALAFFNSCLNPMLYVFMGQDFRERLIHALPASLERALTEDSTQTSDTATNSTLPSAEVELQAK
Description: The cells were then filtered onto Whatman paper discs, which were air-dried and measured for Remission.

[6] = target: T4, epitope-tagged human FPR stably expressed on rat basophilic leukemia (RBL) cells (ETFR cells) (human, UniProt P21462 1-350); test: displacement of 3 nM ^3[H]-fMLF from ETFR cells by unlabeled CaG, filter binding
T4 construct: whole, on cells; also called RBL cells transfected with FPR; not shown: neither its identity nor its position on FPR is stated
T4 sequence (looked up): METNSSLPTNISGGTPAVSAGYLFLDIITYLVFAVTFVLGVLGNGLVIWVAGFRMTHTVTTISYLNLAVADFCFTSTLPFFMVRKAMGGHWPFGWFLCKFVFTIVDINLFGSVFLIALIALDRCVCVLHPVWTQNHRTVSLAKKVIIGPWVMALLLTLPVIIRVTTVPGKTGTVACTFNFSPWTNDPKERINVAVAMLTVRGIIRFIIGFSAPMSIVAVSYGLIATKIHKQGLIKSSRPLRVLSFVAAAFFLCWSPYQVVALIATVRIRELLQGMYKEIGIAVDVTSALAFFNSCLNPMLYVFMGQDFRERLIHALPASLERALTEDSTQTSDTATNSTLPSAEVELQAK

[7] = target: T4, epitope-tagged human FPR stably …; test: binding of ^125I-CaG (25 nM) to ETFR cells with increasing unlabeled ligand, analysed with the LIGAND program
Procedure: After incubation and rotation at room temperature for 1 h, the cells were pelleted through a 10% sucrose/PBS cushion for 1 min at 10,000 g. The supernatant was removed and the radioactivity associated with cell pellets was measured in a γ counter (CliniGamma, Pharmacia Biotech Inc.). The binding data were analyzed with a Macintosh computer-aided program LIGAND (Dr. P. Munson, Division of Computer Research and Technology, NIH, Bethesda, Md.).

Molecule: CSCC[C@H](NC=O)C(=O)N[C@@H](CC(C)C)C(=O)N[C@@H](Cc1ccccc1)C(=O)O [fMLF, formyl-methionyl-leucyl-phyenyalanine]
- PKC translocation in parental RBL cells (PKC isozymes): Neither CaG nor fMLF stimulated PKC translocation in parental RBL cells
- attenuation of monocyte chemotaxis to CaG after pre-incubation with agonist (monocytes): attenuated monocyte response to CaG
- translocation of PKCδ (PKCδ): did not induce translocation of PKCδ
- time of maximal effect on p-ERK (ERK1/2): 1 min
- migration of parental RBL cells (parental RBL cells): Neither CaG nor fMLF induced migration of parental RBL cells
- translocation of PKCα/β (PKCα/β): promoted the translocation of not only PKCξ, but also PKCα/β
- translocation of PKCζ (PKCζ): promoted the translocation of not only PKCξ, but also PKCα/β

Molecule: synthetic N-formyl peptide fMLF (formyl-methionyl-leucyl-phenylalanine)
- IC50 [1]: 3 nM
- IC50 [2]: 3 nM

B1: Cathepsin G (CaG), purified from neutrophil granules (protein)
chain: IIGGRESRPHSRPYMAYLQIQSPAGQSRCGGFLVREDFVLTAAHCWGSNINVTLGAHNIQRRENTQQHITARRAIRHPQYNQRTIQNDIMLLQLSRRVRRNRNVNPVALPRAQEGLRPGTLCTVAGWGRVSMRRGTDTLREVQLRVQRDRQCLRIFGSYDPRRQICVGDRRERKAAFKGDSGGPLLCNNVAHGIVSYGKSSGVPPEVFTRVSSFLPWIRTTMRS
- phosphorylation of ERK1/2, p38 MAPK and Akt (Western blot) [3]: CaG also positively and rapidly (within 1-5 min) activated ERK1/2 (FIG. 5 A), p38 MAPK (FIG. 5 C), and Akt (FIG. 5 D)
- monocyte migration (chemotaxis), concentration of maximal activity [4]: CaG dose-dependently induced monocyte migration (FIG. 1A), which reached maximal activity at a concentration of 5 µg/ml of the protein (200 nM)

- IC50 [5]: 100 nM
- IC50 [6]: 100 nM
- Kd [7]: 85 nM
B2: Cathepsin G (CaG), purified from neutrophil granules (enzyme)
chain: IIGGRESRPHSRPYMAYLQIQSPAGQSRCGGFLVREDFVLTAAHCWGSNINVTLGAHNIQRRENTQQHITARRAIRHPQYNQRTIQNDIMLLQLSRRVRRNRNVNPVALPRAQEGLRPGTLCTVAGWGRVSMRRGTDTLREVQLRVQRDRQCLRIFGSYDPRRQICVGDRRERKAAFKGDSGGPLLCNNVAHGIVSYGKSSGVPPEVFTRVSSFLPWIRTTMRS
modifications: iodinated (^125I, chloramine-T method) in the direct binding assay only
